ChEMBL document CHEMBL4613325, “Design of Development Candidate eFT226, a First in Class Inhibitor of Eukaryotic Initiation Factor 4A RNA Helicase” (J Med Chem, 2020)

Legend:
MDA-MB-231 = test: Antiproliferative activity against human MDA-MB-231 cells assessed as reduction in cell proliferation incubated for 72 hrs by CellTiter-Glo reagent based assay; assay type: functional; details: MDA-MB-231, 72 h
[1] = Apparent permeability from apical to basolateral side in human Caco2 cells at 10 uM by LC/MS/MS analysis
[2] = Stability in human liver microsomes assessed as parent compound remaining at 1 uM pre-incubated for 10 mins before NADPH addition and measured after 30 mins by LC/MS/MS analysis; assay type: ADME, Microsome; details: read-out: Stability
[3] = Stability in rat liver microsomes assessed as parent compound remaining at 1 uM pre-incubated for 10 mins before NADPH addition and measured after 30 mins by LC/MS/MS analysis; assay type: ADME, Microsome; details: read-out: Stability
hERG (KCNH2) = hERG (KCNH2) (Homo sapiens, UniProt Q12809); test: Inhibition of human ERG at 10 uM by patch-clamp assay relative to control
[4] = Efflux ratio in human Caco2 cells at 10 uM by LC/MS/MS analysis

Chain of hERG (KCNH2) (Q12809 whole entry): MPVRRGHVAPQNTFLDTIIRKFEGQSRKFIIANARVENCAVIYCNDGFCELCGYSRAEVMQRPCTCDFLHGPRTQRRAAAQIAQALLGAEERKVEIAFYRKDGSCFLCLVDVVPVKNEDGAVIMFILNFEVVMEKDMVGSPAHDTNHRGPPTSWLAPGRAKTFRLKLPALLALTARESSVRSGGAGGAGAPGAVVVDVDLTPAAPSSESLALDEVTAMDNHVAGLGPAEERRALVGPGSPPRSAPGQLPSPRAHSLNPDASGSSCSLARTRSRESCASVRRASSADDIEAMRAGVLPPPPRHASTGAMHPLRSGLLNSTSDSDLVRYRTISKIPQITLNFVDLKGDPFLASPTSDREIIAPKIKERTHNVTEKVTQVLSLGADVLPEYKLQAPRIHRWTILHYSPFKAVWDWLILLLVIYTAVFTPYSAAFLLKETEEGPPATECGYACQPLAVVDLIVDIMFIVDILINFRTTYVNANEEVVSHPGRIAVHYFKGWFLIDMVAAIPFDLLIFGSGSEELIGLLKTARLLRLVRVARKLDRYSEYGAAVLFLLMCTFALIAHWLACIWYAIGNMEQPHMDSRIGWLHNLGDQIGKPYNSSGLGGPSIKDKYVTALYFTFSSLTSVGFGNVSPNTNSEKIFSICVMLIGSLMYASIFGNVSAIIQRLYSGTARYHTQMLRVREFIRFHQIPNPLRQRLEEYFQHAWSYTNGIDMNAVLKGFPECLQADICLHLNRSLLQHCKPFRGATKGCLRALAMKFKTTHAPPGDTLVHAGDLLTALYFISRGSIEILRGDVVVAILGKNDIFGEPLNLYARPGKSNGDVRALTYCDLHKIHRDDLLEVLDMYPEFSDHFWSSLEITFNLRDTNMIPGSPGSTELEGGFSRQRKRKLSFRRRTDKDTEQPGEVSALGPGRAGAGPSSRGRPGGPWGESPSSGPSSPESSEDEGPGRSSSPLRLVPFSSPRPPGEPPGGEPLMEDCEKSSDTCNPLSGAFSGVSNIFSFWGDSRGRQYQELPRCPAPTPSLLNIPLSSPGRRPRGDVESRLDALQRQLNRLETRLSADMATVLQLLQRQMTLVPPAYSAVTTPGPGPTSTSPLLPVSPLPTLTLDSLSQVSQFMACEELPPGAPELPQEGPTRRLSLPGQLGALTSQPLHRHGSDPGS

SMILES	IC50 (MDA-MB-231)	remaining at 0.5 h, 1 µM [2]	remaining at 0.5 h, 1 µM [3]	also measured
CN(C)C(=O)[C@H]1[C@@H](O)[C@@]2(O)c3ncc(Cl)cc3O[C@@]2(c2ccc(C(F)F)cc2)[C@@H]1c1ccccc1	241 nM	–	–	–
CNC(=O)[C@H]1[C@@H](O)[C@@]2(O)c3ncc(Cl)cc3O[C@@]2(c2ccc(C#N)cc2)[C@@H]1c1ccccc1	32 nM	–	–	Papp A→B at 10 µM ([1]; Caco-2, Papp): 0.5 ×10⁻⁶ cm/s
COc1nccc2c1[C@]1(O)[C@H](O)[C@H](C(=O)N(C)C)[C@@H](c3ccccc3)[C@]1(c1ccc(C#N)cc1)O2 (racemic)	314 nM	–	–	–
COc1cncc2c1[C@]1(O)[C@H](O)[C@H](CN(C)C)[C@@H](c3ccccc3)[C@]1(c1ccc(C#N)cc1)O2 (stereo in doubt; (+)-37)	–	75%	72%	Papp ([1]; caco-2, 10 µM, 10 µM): 0.2 ×10⁻⁶ cm/s; inhibition at 10 µM (hERG (KCNH2)): 11%; Ratio ([4]; caco-2, 10 µM, 10 µM): 23
COc1ccc2c(c1)O[C@@]1(c3ccc(C#N)cc3)[C@H](c3ccccc3)[C@@H](C(=O)N(C)C)[C@@H](O)[C@@]21O (racemic)	68 nM	–	–	–
CN(C)C(=O)[C@H]1[C@@H](O)[C@@]2(O)c3ncc(Cl)cc3O[C@@]2(c2ccc(F)cc2)[C@@H]1c1ccccc1	> 1000 nM	–	–	–
COc1cncc2c1[C@]1(O)[C@H](O)[C@H](CN)[C@@H](c3ccccc3)[C@]1(c1ccc(C#N)cc1)O2 (racemic)	211 nM	106%	104%	Papp A→B at 10 µM ([1]; Caco-2): 0.11 ×10⁻⁶ cm/s; inhibition at 10 µM (hERG (KCNH2)): 11%; efflux ratio at 10 µM ([4]; Caco-2): 4
COc1ccc2c(n1)O[C@@]1(c3ccc(C#N)cc3)[C@H](c3ccccc3)[C@@H](C(=O)N(C)C)[C@@H](O)[C@@]21O (racemic)	> 1000 nM	–	–	–
CN(C)C(=O)[C@H]1[C@@H](O)[C@@]2(O)c3ncc(Cl)cc3O[C@@]2(c2ccc(Cl)cc2)[C@@H]1c1ccccc1	160 nM	–	–	–
COc1cncc2c1[C@]1(O)[C@H](O)[C@H](CCN(C)C)[C@@H](c3ccccc3)[C@]1(c1ccc(C#N)cc1)O2 (racemic)	143 nM	75%	77%	Papp A→B at 10 µM ([1]; Caco-2): 0.1 ×10⁻⁶ cm/s; inhibition at 10 µM (hERG (KCNH2)): 11%; efflux ratio at 10 µM ([4]; Caco-2): 27
COc1cncc2c1[C@]1(O)[C@H](O)[C@H](CN(C)CC(F)(F)F)[C@@H](c3ccccc3)[C@]1(c1ccc(C#N)cc1)O2	196 nM	< 1%	< 1%	Papp A→B at 10 µM ([1]; Caco-2): 7.1 ×10⁻⁶ cm/s; efflux ratio at 10 µM ([4]; Caco-2): 1.3
COc1cncc2c1[C@]1(O)[C@H](O)[C@H](CN(C)C(C)(C)C)[C@@H](c3ccccc3)[C@]1(c1ccc(C#N)cc1)O2	140 nM	61%	77%	Papp A→B at 10 µM ([1]; Caco-2): 0.1 ×10⁻⁶ cm/s; inhibition at 10 µM (hERG (KCNH2)): 16%; efflux ratio at 10 µM ([4]; Caco-2): 57
COc1cncc2c1[C@]1(O)[C@H](O)[C@H](CNC(C)(C)C)[C@@H](c3ccccc3)[C@]1(c1ccc(C#N)cc1)O2	301 nM	99%	92%	inhibition at 10 µM (hERG (KCNH2)): < 10%
COc1cncc2c1[C@]1(O)[C@H](O)[C@H](CN3[C@@H]4CC[C@H]3COC4)[C@@H](c3ccccc3)[C@]1(c1ccc(C#N)cc1)O2	101 nM	51%	51%	Papp A→B at 10 µM ([1]; Caco-2): 1.9 ×10⁻⁶ cm/s; efflux ratio at 10 µM ([4]; Caco-2): 5.3
COc1cncc2c1[C@]1(O)[C@H](O)[C@H](CN3CCC(F)(F)CC3)[C@@H](c3ccccc3)[C@]1(c1ccc(C#N)cc1)O2	158 nM	45%	42%	Papp A→B at 10 µM ([1]; Caco-2): 4.8 ×10⁻⁶ cm/s; inhibition at 10 µM (hERG (KCNH2)): 30%; efflux ratio at 10 µM ([4]; Caco-2): 1.7
COc1cncc2c1[C@]1(O)[C@H](O)[C@H](CN3[C@@H]4CCC[C@H]3CC4)[C@@H](c3ccccc3)[C@]1(c1ccc(C#N)cc1)O2	143 nM	62%	68%	Papp A→B at 10 µM ([1]; Caco-2): 0.5 ×10⁻⁶ cm/s; efflux ratio at 10 µM ([4]; Caco-2): 35
COc1cnc2c(c1)O[C@@]1(c3ccc(C#N)cc3)[C@H](c3ccccc3)[C@@H](C(=O)N(C)C)[C@@H](O)[C@@]21O	159 nM	–	–	–
COc1cncc2c1[C@]1(O)[C@H](O)[C@H](CN3CCCCC3)[C@@H](c3ccccc3)[C@]1(c1ccc(C#N)cc1)O2	50 nM	81%	56%	–
COc1ccc([C@@]23Oc4cc(Cl)ccc4[C@]2(O)[C@H](O)[C@H](C(=O)N(C)C)[C@H]3c2ccccc2)cc1 (racemic)	52 nM	–	–	–
CNS(=O)(=O)[C@H]1[C@@H](O)[C@@]2(O)c3ncc(Cl)cc3O[C@@]2(c2ccc(C#N)cc2)[C@@H]1c1ccccc1 (racemic)	2040 nM	–	–	–
CN(C)C(=O)[C@H]1[C@@H](O)[C@@]2(O)c3ncc(Cl)cc3O[C@@]2(c2ccc(OC(F)(F)F)cc2)[C@@H]1c1ccccc1	603 nM	–	–	–
CN(C)C(=O)[C@H]1[C@@H](O)[C@@]2(O)c3ncc(Cl)cc3O[C@@]2(c2ccc(S(C)(=O)=O)cc2)[C@@H]1c1ccccc1	> 1000 nM	–	–	–
COc1cncc2c1[C@]1(O)[C@H](O)[C@H](CN3CCOCC3)[C@@H](c3ccccc3)[C@]1(c1ccc(C#N)cc1)O2	121 nM	40%	52%	Papp A→B at 10 µM ([1]; Caco-2, Papp): 1.5 ×10⁻⁶ cm/s; inhibition at 10 µM (hERG (KCNH2)): < 10%; efflux ratio at 10 µM ([4]; Caco-2, Ratio): 5.3
COc1ccc([C@@]23Oc4cc(OC)cc(OC)c4[C@]2(O)[C@H](O)[C@H](C(=O)N(C)C)[C@H]3c2ccccc2)cc1 [ROCAGLAMIDE]	20 nM	–	–	–

SMILES	IC50 (MDA-MB-231)	remaining at 0.5 h, 1 µM [2]	remaining at 0.5 h, 1 µM [3]	also measured
CN(C)S(=O)(=O)[C@H]1[C@@H](O)[C@@]2(O)c3ncc(Cl)cc3O[C@@]2(c2ccc(C#N)cc2)[C@@H]1c1ccccc1 (racemic)	304 nM	–	–	–
Cc1ccc([C@@]23Oc4cc(Cl)cnc4[C@]2(O)[C@H](O)[C@H](C(=O)N(C)C)[C@H]3c2ccccc2)cc1	143 nM	–	–	–
CN(C)C(=O)[C@H]1[C@@H](O)[C@@]2(O)c3ccc(C#N)cc3O[C@@]2(c2ccc(C#N)cc2)[C@@H]1c1ccccc1 (racemic)	26 nM	–	–	–
COc1cncc2c1[C@]1(O)[C@H](O)[C@H](CN(C)CC(F)F)[C@@H](c3ccccc3)[C@]1(c1ccc(C#N)cc1)O2	250 nM	1%	< 1%	Papp A→B at 10 µM ([1]; Caco-2): 2.6 ×10⁻⁶ cm/s; inhibition at 10 µM (hERG (KCNH2)): 11%; efflux ratio at 10 µM ([4]; Caco-2): 3.2
COc1cncc2c1[C@]1(O)[C@H](O)[C@H](CN3CC4(COC4)C3)[C@@H](c3ccccc3)[C@]1(c1ccc(C#N)cc1)O2	124 nM	81%	74%	Papp A→B at 10 µM ([1]; Caco-2): 0.1 ×10⁻⁶ cm/s; efflux ratio at 10 µM ([4]; Caco-2): 41
CCN(CC)C[C@H]1[C@@H](O)[C@@]2(O)c3c(OC)cncc3O[C@@]2(c2ccc(C#N)cc2)[C@@H]1c1ccccc1	62 nM	73%	76%	Papp A→B at 10 µM ([1]; Caco-2): 0.3 ×10⁻⁶ cm/s; inhibition at 10 µM (hERG (KCNH2)): 40%; efflux ratio at 10 µM ([4]; Caco-2): 35
CN(C)C(=O)[C@H]1[C@@H](O)[C@@]2(O)c3ncc(Cl)cc3O[C@@]2(c2ccc(C#N)cc2)[C@@H]1c1ccccc1	87 nM	–	–	Papp A→B at 10 µM ([1]; Caco-2): 1.8 ×10⁻⁶ cm/s
N#Cc1ccc([C@@]23Oc4cc(Cl)cnc4[C@]2(O)[C@H](O)[C@H](C(N)=O)[C@H]3c2ccccc2)cc1	90 nM	–	–	Papp A→B at 10 µM ([1]; Caco-2): 0.5 ×10⁻⁶ cm/s
COc1ccc([C@@]23Oc4cc(C#N)cnc4[C@]2(O)[C@H](O)[C@H](C(=O)N(C)C)[C@H]3c2ccccc2)cc1	601 nM	–	–	–
N#Cc1ccc([C@@]23Oc4cc(Cl)cnc4[C@]2(O)[C@H](O)[C@H](CO)[C@H]3c2ccccc2)cc1 (racemic)	1460 nM	–	–	–
N#Cc1ccc([C@@]23Oc4cc(Cl)cnc4[C@]2(O)[C@H](O)[C@H](c2ncco2)[C@H]3c2ccccc2)cc1 (racemic)	236 nM	–	–	–
CN(C)C[C@H]1[C@@H](O)[C@@]2(O)c3ncc(Cl)cc3O[C@@]2(c2ccc(C#N)cc2)[C@@H]1c1ccccc1	239 nM	–	–	–
CN(C)C(=O)[C@H]1[C@@H](O)[C@@]2(O)c3ncc(C#N)cc3O[C@@]2(c2ccc(C#N)cc2)[C@@H]1c1ccccc1	385 nM	–	–	–
COc1ccc([C@@]23Oc4cc(OC)cnc4[C@]2(O)[C@H](O)[C@H](C(=O)N(C)C)[C@H]3c2ccccc2)cc1 (racemic)	990 nM	–	–	–
CN(C)C(=O)[C@H]1[C@@H](O)[C@@]2(O)c3cnc(C#N)cc3O[C@@]2(c2ccc(C#N)cc2)[C@@H]1c1ccccc1	308 nM	–	–	–
COc1ccc([C@@]23Oc4cc(Cl)cnc4[C@]2(O)[C@H](O)[C@H](C(=O)N(C)C)[C@H]3c2ccccc2)cc1	283 nM	–	–	–
CS(=O)(=O)[C@H]1[C@@H](O)[C@@]2(O)c3ncc(Cl)cc3O[C@@]2(c2ccc(C#N)cc2)[C@@H]1c1ccccc1	3020 nM	–	–	–
COc1ccc([C@@]23Oc4cc(OC)ccc4[C@]2(O)[C@H](O)[C@H](C(=O)N(C)C)[C@H]3c2ccccc2)cc1 (racemic)	198 nM	–	–	–
COc1cncc2c1[C@]1(O)[C@H](O)[C@H](CN3CC(F)(F)C3)[C@@H](c3ccccc3)[C@]1(c1ccc(C#N)cc1)O2	208 nM	–	–	Papp A→B at 10 µM ([1]; Caco-2): 1.9 ×10⁻⁶ cm/s; inhibition at 10 µM (hERG (KCNH2)): < 10%; efflux ratio at 10 µM ([4]; Caco-2): 5.7
CN(C)C(=O)[C@H]1[C@@H](O)[C@@]2(O)c3ccc(Cl)cc3O[C@@]2(c2ccc(C#N)cc2)[C@@H]1c1ccccc1 (racemic)	19 nM	–	–	–
CNC[C@H]1[C@@H](O)[C@@]2(O)c3c(OC)cncc3O[C@@]2(c2ccc(C#N)cc2)[C@@H]1c1ccccc1 (racemic)	482 nM	98%	90%	Papp A→B at 10 µM ([1]; Caco-2, Papp): 0.3 ×10⁻⁶ cm/s; inhibition at 10 µM (hERG (KCNH2)): < 10%; efflux ratio at 10 µM ([4]; Caco-2, Ratio): 3.9
N#Cc1ccc([C@@]23Oc4cc(Cl)cnc4[C@]2(O)[C@H](O)C[C@H]3c2ccccc2)cc1 (racemic)	670 nM	–	–	–
CN(C)C(=O)[C@H]1[C@@H](O)[C@@]2(O)c3ncc(Cl)cc3O[C@@]2(c2ccc(C(F)(F)F)cc2)[C@@H]1c1ccccc1	320 nM	–	–	–
COc1ccc([C@@]23Oc4cc(C#N)ccc4[C@]2(O)[C@H](O)[C@H](C(=O)N(C)C)[C@H]3c2ccccc2)cc1 (racemic)	38 nM	–	–	–
